Results taken from article PMC6152226, “Composition and Antioxidant, Antienzymatic and Antimicrobial Activities of Volatile Molecules from Spanish Salvia lavandulifolia (Vahl) Essential Oils” (Molecules : A Journal of Synthetic Chemistry and Natural …, 2017).
≈ marks a conversion by molar mass, not a printed value. Where “and” joins values, the source holds several entries; their conditions need not be identical. Identical values can stand only once. Like-named read-outs stand apart in the source and are kept apart here.

Assays:
[1] = biological target: T1, AChE VI-S (Electrophorus electricus, UniProt O42275); assay: biochemical; conditions: for concentration at which 15% inhibition of AChE reached: IC50 not calculable due to low water solubility
T1 construct: purchased Sigma-Aldrich
Description: AChE VI-S from Electrophorus electricus was purchased from Sigma-Aldrich. AChE inhibitory activity was measured in triplicate using a 96-well microplate reader at 25 °C, according to Ellman’s method. This enzyme hydrolyzes acetylthiocholine to acetate and thiocholine, which reacts with 5,5-dithio-bis-(2-nitrobenzoic acid) (DTNB) producing a coloured compound with absorbance at 412 nm. The reaction was measured for 10 min at 25 °C, using a 96-well microplate reader. SlEOs were diluted in 15% ethanol, to obtain a final concentration of 5% ethanol in the reaction medium.
(§1) The DI in both antienzymatic assays were calculated using Equation (1):(1) DI (%)= ν0−νi/ν0 × 100 where v0 and v1 are the steady state rates without and with inhibitor, respectively. The inhibitions of LOX were reported as DI at 150 µg/mL of each SlEO. […] To calculate the IC50 values, data of DI (%) of seven different concentrations of each SlEO were plotted and fitted by non-linear regression according to Equation (2) using Sigma Plot software (systatsoftware.com) (Figure S6). The inhibitions of LOX and AChE by individual compounds were reported as IC50 or DI, depending on their inhibition capacities and solubilities.
(§2) (2) DI (%)= DImax [I]0/IC50+ [I]0

[2] = Reducing power (RdP) method; conditions: individual compounds; maximum assay concentration 100 mM
Description: (§3) Five antioxidant methods were performed with SlEOs and their main individual compounds in triplicate. In the oxygen radical absorbance capacity (ORAC) assay, peroxyl radicals are produced by 2,2′-Azobis(2-methylpropionamidine) dihydrochloride (AAPH), which reacts with fluorescein giving a non-fluorescent compound [61]. The antioxidants are able to scavenge these peroxyl radicals. Trolox was used as the reference antioxidant. The 2,2-diphenyl-1-picrylhydrazyl (DPPH) and 2,2′-azino-bis(3-ethylbenzothiazoline-6-sulphonic acid) (ABTS) methods measure the bleaching produced by the reduction of the coloured DPPH and ABTS radicals. Trolox was used as the reference antioxidant. The RdP method measure the ability to reduce ferric ions, according to the method of Oyaizu. Ascorbic acid was the reference antioxidant used in this method. The ChP method measured the ability to chelate Fe^2+ ion, following the method of Miguel et al.. EDTA was used as reference antioxidant. The SlEOs were diluted in 100% ethanol in the DPPH, ABTS, RdP and ChP methods, whereas in the ORAC method, SlEOs were diluted in 15% ethanol to obtain a final concentration of 5% ethanol in the reaction medium. All measurements were made at the end-point of the reaction, except in the ORAC method (Figure S5).

[3] = test system: Candida albicans ATCC 10231; assay: Broth microdilution MIC and MFC; format: cell-based
Description: (§4) The following test microorganisms used in this work were acquired from Sigma-Aldrich: Pseudomonas aeruginosa ATCC 9027, Escherichia coli ATCC 8739, Staphylococcus aureus ATCC 6538, and Candida albicans ATCC 10231. The stock cultures were preserved in TSB or YPD with 15% glycerol, for bacteria and yeast cells, respectively, at −80 °C. Isolated colonies from an 18- to 24-h agar plate were transferred to MHB for bacteria and RPMI-1640 for C. albicans.
(§5) MIC were determined using the broth microdilution method in 96-well microplates, according to the M07-A10 [69] standard for bacteria and the M27-A3 [70] for Candida. Briefly, two-fold dilutions of a 40 µL/mL SlEOs were prepared to obtain a final concentration range of 0.08–20 µL/mL with 0.5% Tween®80 and 2.5% DMSO. The antimicrobial activities of main compounds were also tested in the concentration range of 0.12–15 mM with 0.5% Tween®80 and 2.5% DMSO as solvent. The final strain concentration was 5 × 10^5 CFU/mL in MHB for the bacteria and 0.5−2.5 × 10^3 in RPMI-1640 for the yeast. These plates were incubated for 24 h for bacteria and 48 h for Candida, both at 35 ± 1 °C, under aerobic conditions on a plate shaker at 100 rpm. Streptomycin (0.06–8.00 µg/mL) and fluconazole (0.13–16 µg/mL) were used as reference antibacterial and antifungal compound, respectively. […] MIC is defined as the lowest concentration of EO or individual compound with no visible growth of microorganisms, at the end of the incubation period. […] All determinations were carried out in triplicate.

[4] = biological target: T2, LOX (Glycine max, UniProt P08170); assay: LOX inhibition assay; format: biochemical, Glycine max (soybean); conditions: for DI (%) of LOX: at 514.2 µg/mL, could not reach 50% inhibition
T2 construct: purchased Sigma-Aldrich
Description: A LOX preparation from Glycine max (soybean) was acquired from Sigma-Aldrich. LOX inhibitory activity was determined as previously reported, based on the absorption at 234 nm of the hydroperoxyde conjugated dienes (ε = 25,000 M^−1 cm^−1), which are generated from the oxidation of linoleic acid in the presence of oxygen and LOX. This assay was carried out on a double beam Lambda 35 spectrophotometer (PerkinElmer, Madrid, Spain) with the UV-Winlab software, at 25 °C.
as §1, §2

[5] = Oxygen radical absorbance capacity (ORAC) assay; conditions: individual compounds, maximum assay concentration 100 mM
Description: as §3

[6] = Chelating power (ChP) method; conditions: individual compounds; maximum assay concentration 100 mM
Description: as §3

[7] = DPPH radical method; conditions: individual compounds; maximum assay concentration 100 mM
Description: as §3

[8] = ABTS radical method; conditions: individual compounds; maximum assay concentration 100 mM
Description: as §3

[9] = test system: Staphylococcus aureus ATCC 6538; assay: Broth microdilution MIC and MBC; format: cell-based
Description: as §4, §5

[10] = test system: Escherichia coli ATCC 8739; assay: Broth microdilution MIC and MBC; format: cell-based
Description: as §4, §5

T2 sequence (P08170 whole entry): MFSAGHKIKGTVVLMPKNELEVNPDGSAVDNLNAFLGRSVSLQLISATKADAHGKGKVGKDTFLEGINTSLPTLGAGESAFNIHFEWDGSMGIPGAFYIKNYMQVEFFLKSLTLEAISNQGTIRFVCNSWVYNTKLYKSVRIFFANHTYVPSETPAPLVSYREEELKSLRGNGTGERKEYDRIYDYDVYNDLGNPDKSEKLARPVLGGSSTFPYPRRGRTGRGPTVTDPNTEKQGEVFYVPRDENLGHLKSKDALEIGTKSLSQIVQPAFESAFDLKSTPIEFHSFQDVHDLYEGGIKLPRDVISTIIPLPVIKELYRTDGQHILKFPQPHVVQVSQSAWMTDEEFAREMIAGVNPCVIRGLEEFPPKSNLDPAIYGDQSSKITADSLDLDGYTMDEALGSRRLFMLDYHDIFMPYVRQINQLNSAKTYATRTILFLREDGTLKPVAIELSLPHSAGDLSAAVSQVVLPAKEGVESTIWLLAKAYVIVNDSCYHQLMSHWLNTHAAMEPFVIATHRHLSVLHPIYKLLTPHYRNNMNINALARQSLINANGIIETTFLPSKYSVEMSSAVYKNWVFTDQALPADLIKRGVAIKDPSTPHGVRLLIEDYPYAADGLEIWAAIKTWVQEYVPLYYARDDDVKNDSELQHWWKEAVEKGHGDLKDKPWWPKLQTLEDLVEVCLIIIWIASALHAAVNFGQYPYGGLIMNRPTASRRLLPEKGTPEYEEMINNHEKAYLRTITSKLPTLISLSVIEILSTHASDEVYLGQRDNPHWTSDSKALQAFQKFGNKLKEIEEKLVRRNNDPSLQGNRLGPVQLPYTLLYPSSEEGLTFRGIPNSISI
T1 sequence (O42275 24-633): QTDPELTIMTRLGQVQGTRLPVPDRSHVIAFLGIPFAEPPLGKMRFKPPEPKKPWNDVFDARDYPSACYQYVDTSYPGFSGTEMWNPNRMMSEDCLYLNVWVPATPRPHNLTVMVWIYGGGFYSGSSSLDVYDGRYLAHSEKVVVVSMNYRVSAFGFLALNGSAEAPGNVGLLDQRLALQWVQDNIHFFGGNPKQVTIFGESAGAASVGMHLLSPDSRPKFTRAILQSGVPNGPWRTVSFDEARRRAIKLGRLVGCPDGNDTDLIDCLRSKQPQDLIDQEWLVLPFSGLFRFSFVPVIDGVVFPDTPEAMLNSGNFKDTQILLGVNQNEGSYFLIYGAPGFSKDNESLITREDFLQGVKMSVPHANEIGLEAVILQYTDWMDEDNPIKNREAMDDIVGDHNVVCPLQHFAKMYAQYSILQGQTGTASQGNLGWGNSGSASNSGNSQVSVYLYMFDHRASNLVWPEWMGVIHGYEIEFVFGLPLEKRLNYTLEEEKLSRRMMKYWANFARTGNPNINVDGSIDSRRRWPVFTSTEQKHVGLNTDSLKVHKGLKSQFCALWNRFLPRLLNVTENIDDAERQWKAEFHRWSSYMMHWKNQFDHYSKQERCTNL

Structure (SMILES)	RdP [2]	MIC ([3]; ATCC10231, 48 h, read-out: MIC) [µg/mL]	MFC ([3]; ATCC10231, read-out: MFC) [µg/mL]	DI (%) of LOX [4] [%]	ORAC [5]	ChP [6]	DPPH [7]	ABTS [8]	MIC ([9]; ATCC6538, 24 h, read-out: MIC) [µg/mL]	MBC ([9]; ATCC6538, read-out: MBC) [µg/mL]	MIC ([10]; ATCC8739, 24 h, read-out: MIC) [µg/mL]	MBC ([10]; ATCC8739, read-out: MBC) [µg/mL]	other results
CC12CCC(CC1)C(C)(C)O2 [1,8-Cineole]	N/D (Activity lower than 0.05 units at a maximum assay concentration of 100 mM)	> 2300	> 2300	30.9 ± 1.1	N/D (Activity lower than 0.05 units at a maximum assay concentration of 100 mM)	1.1 ± 0.1 µmol EDTAE/mmol X	N/D (Activity lower than 0.05 units at a maximum assay concentration of 100 mM)	N/D (Activity lower than 0.05 units at a maximum assay concentration of 100 mM)	> 2300	> 2300	> 2300	> 2300	IC50 [1]: 228 µM and 227 µM; ORAC ([5]; listed as 1,8-cineole): did not show any ORAC antioxidant activity
C=C1C2CCC(C2)C1(C)C (stereo not shown) [Camphene]	0.5 ± 0.0 µmol AAE/mmol X				N/D (Activity lower than 0.05 units at a maximum assay concentration of 100 mM)	1.6 ± 0.1 µmol EDTAE/mmol X	N/D (Activity lower than 0.05 units at a maximum assay concentration of 100 mM)	0.1 ± 0.0 µmol TE/mmol X					concentration at which 15% inhibition of AChE reached [1]: 42.4 ± 3.7 µg/mL; MFC ([3]; ATCC10231): > 2000 µg/mL; MIC ([3]; ATCC10231, 48 h): > 2000 µg/mL; MBC ([9]; ATCC6538): > 2000 µg/mL; MIC ([9]; ATCC6538, 24 h): > 2000 µg/mL; MBC ([10]; ATCC8739): > 2000 µg/mL; MIC ([10]; ATCC8739, 24 h): > 2000 µg/mL
CC12CCC(CC1=O)C2(C)C (stereo not shown) [Camphor]	N/D (Activity lower than 0.05 units at a maximum assay concentration of 100 mM)	> 2300	> 2300		N/D (Activity lower than 0.05 units at a maximum assay concentration of 100 mM)	N/D (Activity lower than 0.05 units at a maximum assay concentration of 100 mM)	N/D (Activity lower than 0.05 units at a maximum assay concentration of 100 mM)	N/D (Activity lower than 0.05 units at a maximum assay concentration of 100 mM)	> 2300	> 2300	> 2300	> 2300	IC50 [4]: 2740 µM; ORAC ([5]; listed as camphor): did not show any ORAC antioxidant activity
C=C(C)[C@H]1CC=C(C)CC1 [Limonene]	N/D (Activity lower than 0.05 units at a maximum assay concentration of 100 mM)				128.0 ± 10.8 µmol TE/mmol X	5.9 ± 0.4 µmol EDTAE/mmol X	N/D (Activity lower than 0.05 units at a maximum assay concentration of 100 mM)	0.6 ± 0.0 µmol TE/mmol X					MFC [3]: 1000 µg/mL (≈ 7.34 mM); MIC ([3]; 48 h): 1000 µg/mL (≈ 7.34 mM); IC50LOX [4]: 116.1 ± 3.3 µg/mL (≈ 0.852 mM); MBC [9]: 300 µg/mL (≈ 2.2 mM); MIC ([9]; 24 h): 300 µg/mL (≈ 2.2 mM); MBC [10]: 2000 µg/mL (≈ 14.7 mM); MIC ([10]; 24 h): 2000 µg/mL (≈ 14.7 mM)
C=CC(C)(O)CCC=C(C)C (stereo not shown) [Linalool]	N/D (Activity lower than 0.05 units at a maximum assay concentration of 100 mM)	2300 (≈ 14.9 mM)	2300 (≈ 14.9 mM)		341.9 ± 18.5 µmol TE/mmol X	96.9 ± 5.8 µmol EDTAE/mmol X	N/D (Activity lower than 0.05 units at a maximum assay concentration of 100 mM)	0.1 ± 0.0 µmol TE/mmol X	600 (≈ 3.89 mM)	1100 (≈ 7.13 mM)	1100 (≈ 7.13 mM)	2300 (≈ 14.9 mM)	IC50 [4]: 3350 µM
CC1=CCC(O)(C(C)C)CC1 (stereo not shown) [Terpinen-4-ol]	N/D (Activity lower than 0.05 units at a maximum assay concentration of 100 mM)	> 2300	> 2300	29.6 ± 1.0	356.0 ± 13.6 µmol TE/mmol X	1.7 ± 0.1 µmol EDTAE/mmol X	N/D (Activity lower than 0.05 units at a maximum assay concentration of 100 mM)	0.3 ± 0.0 µmol TE/mmol X	1100 (≈ 7.13 mM)	2300 (≈ 14.9 mM)	2300 (≈ 14.9 mM)	2300 (≈ 14.9 mM)	concentration at which 15% inhibition of AChE reached [1]: 582.4 ± 38.1 µg/mL
CC1=CCC2CC1C2(C)C (stereo not drawn) [α-Pinene]	N/D (Activity lower than 0.05 units at a maximum assay concentration of 100 mM)	500 (≈ 3.67 mM)	500 (≈ 3.67 mM)		N/D (Activity lower than 0.05 units at a maximum assay concentration of 100 mM)	16.6 ± 1.1 µmol EDTAE/mmol X	N/D (Activity lower than 0.05 units at a maximum assay concentration of 100 mM)	N/D (Activity lower than 0.05 units at a maximum assay concentration of 100 mM)	2100 (≈ 15.4 mM)	> 2100	500 (≈ 3.67 mM)	1000 (≈ 7.34 mM)	IC50 [1]: 3270 µM
CC1=CC[C@@H](C(C)(C)O)CC1 [α-Terpineol]	N/D (Activity lower than 0.05 units at a maximum assay concentration of 100 mM)	> 2400	> 2400	17.4 ± 0.2	310.0 ± 16.6 µmol TE/mmol X	4.9 ± 0.3 µmol EDTAE/mmol X	N/D (Activity lower than 0.05 units at a maximum assay concentration of 100 mM)	0.2 ± 0.0 µmol TE/mmol X	600 (≈ 3.89 mM)	1100 (≈ 7.13 mM)	2400 (≈ 15.6 mM)	2400 (≈ 15.6 mM)	
